# Measurements published in US20220041616A1, “SPIRO COMPOUND AND MEDICAL USES THEREOF” (The National Institutes of Pharmaceutical R&D Co., Ltd., priority 2018, published 2022).
# Key:
# HepG2 cells = experiment: In vitro inhibition of proliferation of HepG2 cells, CellTiter-Glo; format: cell-based, human; conditions: 3 days incubation, top concentration 30 μM
# Excerpt: CellTiter-Glo Analysis Kit (Promega) was used for the detection of the inhibitory effect of the present compound on the proliferation of HepG2 cells. The CellTiter-Glo detection method uses luciferase, which requires ATP for its reaction and luminescence. The intensity of the luminescent signal depends on the amount of ATP, and the amount of ATP depends on the number of living cells. Said analysis only requires that ATP in living cells is converted to luminescence by UltraGlo™ luciferase after treatment with the tested drug, so that the inhibitory effect of the compound is detected based on the luminescence intensity, and its IC50 value is calculated.
# a. HepG2 cells were purchased from the American type culture collection (ATCC) resource bank. Cells were cultured in MEM (GIBCO) containing 10% fetal bovine serum, penicillin (100 units/mL) and streptomycin (100 μg/mL), and then incubated in a 37° C. incubator containing 5% carbon dioxide, and passaged once every 2 to 3 days.
# b. On the first day, 800 HepG2 cells were inoculated in each well of a 384-well cell culture plate, and then incubated in a 37° C. incubator containing 5% carbon dioxide.
# c. On the second day, the medium was changed to that containing the compound. The concentrations of the compound were 30 μM, 10 μM, 3.33 μM, 1.11 μM, 0.37 μM, 0.123 μM, 0.0411 μM, 0.0137 μM, 0.00457 μM and 0.00152 μM. The final concentration of DMSO was 0.3% (v/v). The plate was incubated for 3 days in a incubator containing 5% carbon dioxide at 37° C. The reaction system with paclitaxel at a final concentration of 1 μM was used as positive control; the reaction system with no compound but DMSO at a final concentration of 0.3% was used as negative control.
# d. […]
# f. The chemiluminescence signal value was read with Envision 2104 instrument.
# The average value of the positive and negative control well and the standard deviation were calculated. The percentage inhibition rate was calculated according to the following formula: 100×[1−(compound−average value of positive control)/(average value of negative control−average value of positive control)]. […]
# ACC2 = ACC2 (Homo sapiens, UniProt O00763); experiment: In vitro inhibition of ACC2 activity, ADP-Glo Kinase Analysis; format: biochemical; conditions: 1.1 nM ACC2, 20 μM acetyl-CoA, 15 μM ATP
# ACC2, sequence (O00763 whole entry): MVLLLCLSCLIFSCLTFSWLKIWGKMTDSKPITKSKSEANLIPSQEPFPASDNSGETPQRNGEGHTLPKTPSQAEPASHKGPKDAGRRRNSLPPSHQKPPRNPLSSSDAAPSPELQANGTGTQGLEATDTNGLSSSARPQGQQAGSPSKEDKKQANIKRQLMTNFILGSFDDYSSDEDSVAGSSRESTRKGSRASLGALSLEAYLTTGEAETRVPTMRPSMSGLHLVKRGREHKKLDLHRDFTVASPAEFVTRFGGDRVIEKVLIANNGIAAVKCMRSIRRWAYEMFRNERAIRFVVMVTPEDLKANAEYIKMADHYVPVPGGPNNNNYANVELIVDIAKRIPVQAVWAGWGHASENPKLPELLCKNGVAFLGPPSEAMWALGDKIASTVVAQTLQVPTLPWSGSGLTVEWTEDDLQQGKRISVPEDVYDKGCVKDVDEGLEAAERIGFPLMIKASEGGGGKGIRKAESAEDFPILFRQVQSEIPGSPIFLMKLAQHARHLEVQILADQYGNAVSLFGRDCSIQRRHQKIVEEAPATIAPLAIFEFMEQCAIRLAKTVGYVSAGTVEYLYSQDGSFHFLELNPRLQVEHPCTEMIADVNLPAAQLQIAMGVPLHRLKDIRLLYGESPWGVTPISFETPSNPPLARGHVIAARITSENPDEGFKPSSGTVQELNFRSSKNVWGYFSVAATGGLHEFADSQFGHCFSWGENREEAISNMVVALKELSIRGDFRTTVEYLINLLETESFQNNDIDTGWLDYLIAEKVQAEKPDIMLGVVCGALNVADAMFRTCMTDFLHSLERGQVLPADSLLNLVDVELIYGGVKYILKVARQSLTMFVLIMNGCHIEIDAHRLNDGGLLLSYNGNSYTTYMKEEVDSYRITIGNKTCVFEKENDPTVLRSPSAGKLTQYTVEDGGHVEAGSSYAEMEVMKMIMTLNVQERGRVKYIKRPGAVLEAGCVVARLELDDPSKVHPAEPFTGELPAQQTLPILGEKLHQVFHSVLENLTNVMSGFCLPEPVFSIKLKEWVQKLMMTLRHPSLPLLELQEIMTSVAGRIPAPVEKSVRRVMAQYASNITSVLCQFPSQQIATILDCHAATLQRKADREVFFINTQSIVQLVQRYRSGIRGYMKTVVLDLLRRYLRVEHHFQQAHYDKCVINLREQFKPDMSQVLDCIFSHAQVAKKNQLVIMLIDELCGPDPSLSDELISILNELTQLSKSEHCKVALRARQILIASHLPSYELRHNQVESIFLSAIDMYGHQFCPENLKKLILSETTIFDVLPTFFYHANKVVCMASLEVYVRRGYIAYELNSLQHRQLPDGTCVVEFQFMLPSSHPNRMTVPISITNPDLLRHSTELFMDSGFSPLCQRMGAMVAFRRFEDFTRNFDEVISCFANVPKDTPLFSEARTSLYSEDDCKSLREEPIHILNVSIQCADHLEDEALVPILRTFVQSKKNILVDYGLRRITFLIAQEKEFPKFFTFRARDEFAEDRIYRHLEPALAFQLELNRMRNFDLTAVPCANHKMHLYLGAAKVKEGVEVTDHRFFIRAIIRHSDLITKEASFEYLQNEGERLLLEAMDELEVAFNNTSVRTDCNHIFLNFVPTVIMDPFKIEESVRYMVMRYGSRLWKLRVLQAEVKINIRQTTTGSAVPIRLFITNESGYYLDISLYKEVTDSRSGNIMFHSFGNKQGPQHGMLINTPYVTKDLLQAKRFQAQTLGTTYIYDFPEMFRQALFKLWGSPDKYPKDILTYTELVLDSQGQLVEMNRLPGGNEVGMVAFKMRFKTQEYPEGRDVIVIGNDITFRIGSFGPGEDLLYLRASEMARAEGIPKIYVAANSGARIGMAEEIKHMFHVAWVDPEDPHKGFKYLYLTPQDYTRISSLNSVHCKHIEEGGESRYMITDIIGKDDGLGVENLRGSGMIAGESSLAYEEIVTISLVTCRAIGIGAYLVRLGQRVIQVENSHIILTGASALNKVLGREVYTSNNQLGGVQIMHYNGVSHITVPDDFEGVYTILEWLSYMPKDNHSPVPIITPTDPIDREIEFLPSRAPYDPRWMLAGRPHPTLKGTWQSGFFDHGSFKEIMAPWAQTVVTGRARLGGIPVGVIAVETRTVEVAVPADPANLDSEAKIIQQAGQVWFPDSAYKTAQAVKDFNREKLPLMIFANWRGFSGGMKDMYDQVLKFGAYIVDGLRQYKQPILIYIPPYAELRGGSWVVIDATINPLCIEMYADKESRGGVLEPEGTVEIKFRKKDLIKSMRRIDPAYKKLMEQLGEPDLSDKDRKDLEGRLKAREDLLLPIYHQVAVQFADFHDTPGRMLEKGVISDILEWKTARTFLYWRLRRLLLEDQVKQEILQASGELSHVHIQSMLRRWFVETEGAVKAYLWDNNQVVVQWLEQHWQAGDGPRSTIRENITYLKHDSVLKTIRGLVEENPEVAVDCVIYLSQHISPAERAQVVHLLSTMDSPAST
# Excerpt: ADP-Glo™ Kinase Analysis Kit (Promega) is used for the in vitro analysis of the inhibitory effect of the present compound on ACC1 or ACC2. ADP-Glo™ Kinase Analysis is a kinase detection analysis of luminescence method. ADP is produced in the process of catalyzing the substrate by ACC. ADP is converted into ATP which is then converted into light by Ultra-Glo™ luciferase. ADP is quantified by detecting the light signal, thus the enzyme activity can be measured by quantification of the ADP amount produced during the enzyme reaction. The analysis is carried out in two steps: in the first step, after the kinase reaction, a portion of ADP-Glo™ reagent equal in volume to the kinase reaction system is added to terminate the reaction and consume the remaining ATP; in the second step, a kinase detection reagent is added, which not only converts ADP into ATP, but also uses a coupled luciferase/luciferin reaction to detect newly synthesized ATP.
# a. 10 mM compound stock solution (the present compound was dissolved in 100% DMSO to prepare the 10 mM stock solution) was diluted 50-fold to 200 μM with 100% DMSO, and then diluted in equal proportions (1:3) in a 96-well dilution plate (249944, Nunc). The gradient concentrations of the compound were 200 μM, 66.67 μM, 22.22 μM, 7.41 μM, 2.47 μM, 0.823 μM, 0.274 μM, 0.0914 μM, 0.0305 μM, 0.0102 μM, 0.00339 μM and 0.00113 μM.
# b. 4.5 μL ACC1 working solution (BPS bioscience) (2.22 nM) was added to each well of a 384-well test plate (6007290, Perkin Elmer).
# c. 0.5 μL of the serially diluted compound (prepared in step a) was added to each well of the 384-well test plate, which was centrifuged at 1000 rpm for 1 min and then incubated at room temperature for 15 min. […]
# g. The chemiluminescence signal was detected with Perkin Elmer EnVision 2104. […]
# The average value of the positive and negative control well and the standard deviation were calculated. The inhibition percentage was calculated according to the following formula: 100×[1−(compound−average value of positive control)/(average value of negative control-average value of positive control)]. […]
SMILES,"IC50 (HepG2 cells; Homo sapiens, HepG2, 72 h) [µM]",IC50 (ACC2) [nM],other results
"COc1ccccc1C(CN1C(=O)C2(CCC(C(=O)O)C2)C(=O)c2c1sc(-c1ncco1)c2C)OC1CCOCC1 (mixture of isomers) [Compound 5x, 7′-(2-(2-methoxyphenyl)-2-((tetrahydro-2H-pyran-4-yl)oxy)ethyl)-3′-methyl-2′-(oxazol-2-yl)-4′,6′-dioxo-6′,7′-dihydro-4′H-spiro[cyclopentane-1,5′-thieno[2,3-b]pyridine]-3-carboxylic Acid]",> 30,–,–
"COc1ccccc1C(CN1C(=O)C2(CCC(C(=O)O)C2)C(=O)c2c1sc(-c1ncco1)c2C)OC1CCOCC1 (mixture of isomers) [Compound 5y, 7′-(2-(2-methoxyphenyl)-2-((tetrahydro-2H-pyran-4-yl)oxy)ethyl)-3′-methyl-2′-(oxazol-2-yl)-4′,6′-dioxo-6′,7′-dihydro-4′H-spiro[cyclopentane-1,5′-thieno[2,3-b]pyridine]-3-carboxylic Acid]",–,–,IC50 (HepG2 cells): > 30 µM
"COc1ccccc1C(CN1C(=O)C2(CC(C(=O)O)C2)C(=O)c2c1sc(-c1ncco1)c2C)OC1CCOCC1 (mixture of isomers) [Compound 8, 7′-(2-(2-methoxyphenyl)-2-((tetrahydro-2H-pyran-4-yl)oxy)ethyl)-3′-methyl-2′-(oxazol-2-yl)-4′,6′-dioxo-6′,7′-dihydro-4′H-spiro[cyclobutane-1,5′-thieno[2,3-b]pyridine]-3-carboxylic Acid]",> 30,–,–
"COc1ccccc1C(CN1C(=O)C2(CCC(C(=O)O)C2)C(=O)c2c1sc(-c1ncco1)c2C)OC1CCOCC1 (single isomer, unassigned) [Compound 5b, 7′-(2-(2-methoxyphenyl)-2-((tetrahydro-2H-pyran-4-yl)oxy)ethyl)-3′-methyl-2′-(oxazol-2-yl)-4′,6′-dioxo-6′,7′-dihydro-4′H-spiro[cyclopentane-1,5′-thieno[2,3-b]pyridine]-3-carboxylic Acid]",–,< 10,–
"COc1ccccc1C(CN1C(=O)C2(CC(C(=O)O)C2)C(=O)c2c1sc(-c1ncco1)c2C)OC1CCOCC1 (single isomer, unassigned) [Compound 8d, 7′-(2-(2-methoxyphenyl)-2-((tetrahydro-2H-pyran-4-yl)oxy)ethyl)-3′-methyl-2′-(oxazol-2-yl)-4′,6′-dioxo-6′,7′-dihydro-4′H-spiro[cyclobutane-1,5′-thieno[2,3-b]pyridine]-3-carboxylic Acid]",–,< 10,–
"COc1ccccc1[C@H](CN1c2sc(-c3ncco3)c(C)c2C(=O)[C@]2(C[C@H](C(=O)O)C2)C1=O)OC1CCOCC1 [Compound 8c, 7′-(2-(2-methoxyphenyl)-2-((tetrahydro-2H-pyran-4-yl)oxy)ethyl)-3′-methyl-2′-(oxazol-2-yl)-4′,6′-dioxo-6′,7′-dihydro-4′H-spiro[cyclobutane-1,5′-thieno[2,3-b]pyridine]-3-carboxylic Acid]",–,< 10,–
